Test results published in article PMC9506480, “Synthesis and Evaluation of Antiproliferative Activity, Topoisomerase IIα Inhibition, DNA Binding and Non-Clinical Toxicity of New Acridine–Thiosemicarbazone Derivatives” (Pharmaceuticals, 2022).

Key:
Swiss mice = assay: Acute toxicity study (14 days), OECD guideline 423; type: in vivo; conditions: for Organ mass Heart (g) / Organ mass Kidneys (g) / Organ mass Liver (g) / Organ mass Lungs (g) / Organ mass Speleen (g): after acute toxicity study; for Organ mass Heart (g) / Organ mass Kidneys (g) / Organ mass Liver (g) / Organ mass Lungs (g) / Organ mass Speleen (g) / Food (g/day) / Water (mL/day) / Weight gain (g): 2000 mg/kg oral; for Food (g/day) / Water (mL/day) / Weight gain (g): during acute toxicity study; for DA/TA (dead animals/total animals) / Mortality (%) / Signs of Toxicity: single oral dose 2000 mg/kg, female mice, 14 days
Method: Based on the low selectivity found in the in vitro cytotoxicity, we decided to perform a preclinical in vivo toxicological analysis on mice to understand the pharmacological profiles of the derivatives described herein. After oral administration of acridine–thiosemicarbazone derivatives to female mice, possible adverse clinical signs and mortality in the groups of animals submitted to the acute toxicity study were recorded (Table 6), as well as absolute body mass, food and water consumption, and the average masses of the organs of the animals treated with the compounds and the control group.
An acute toxicity study was conducted according to Organization for Economic Co-operation and Development (OECD) guideline 423 (OECD 2001) with modifications (National Health Surveillance Agency Brazil, 2013). In principle, the method is not intended to allow an accurate calculation of the lethal dose (LD50), despite providing an estimate of its value; however, it allows a classification of the substance into categories according to the Globally Harmonized Classification System (GHS). The tests were carried out with the consent of the ethics council of the State University of Paraiba (process no. 008/2021, approved 9 November 2021). Swiss mice, three females per group, were subjected to single oral doses of 2000 mg/kg of acridine–thiosemicarbazone derivatives, and to the control group, we administered only the vehicle (12% Tween 80 solution in saline).
After the end of treatment with acridine–thiosemicarbazone derivatives, the animals were anesthetized with a xylazine–ketamine solution of 0.2 mL/100 g (8.75 mL ketamine (100 mg/mL) and 1.25 mL xylazine (10 mg/mL)) as per Cornell University/Cornell Center for Animal Resources and Education protocol described by Flecknell (1996). After euthanasia, a macroscopic assessment of the external body surface, cavities (thoracic, abdominal and cranial) and organs (change in position, shape, size, color and consistency) was carried out. The absolute and relative weights of the brain, lungs, liver, heart, spleen and kidneys were also determined. Relative weight was calculated using the formula: relative organ weight (%) = (weight of organ/weight of mouse) × 100 [88, 89].

[1] = system: B16-F10 (murine melanoma); assay: Alamar blue cytotoxicity assay, B16-F10; type: cell-based; conditions: Mus musculus, 72 h incubation
Method: The in vitro cytotoxic activity of the compounds (Table 1) was evaluated against cancer cell lines HCT116 (human colon carcinoma), HepG2 (human hepatocellular carcinoma), B16F10 (murine melanoma carcinoma) and non-cancerous cell line MRC-5 (human lung fibroblast) using the Alamar blue assay after 72 h of incubation; doxorubicin (DOX) was used as a positive control. The unsubstituted derivatives on the acridine cores were encoded as CL, and the disubstituted derivatives as DL.
The human cancer cell lines HCT116 (colon carcinoma) and HepG2 (hepatocellular carcinoma), the mouse cancer cell line B16-F10 (melanoma), and the non-cancerous human cell line MRC-5 (lung fibroblast) were obtained from the American Type Culture Collection (ATCC, Manassas, VA, USA) and cultured according to the ATCC animal cell culture guide. All cell lines tested negative for mycoplasma using a mycoplasma stain kit.
Cell viability was measured using the Alamar blue assay, as previously described. Cells were seeded in 96-well plates for all experiments. The compounds were dissolved in dimethyl sulfoxide (DMSO, Sigma-Aldrich) and added to each well in eight serial concentrations ranging from 0.19 to 25 μg/mL. As a positive control, doxorubicin was used. After 72 h of treatment, 20 μL of resazurin (0.312 mg/mL) was added to each well. A SpectraMax 190 Micro-plate Reader was used to measure absorbances at 570 and 595 nm (Molecular Devices, Sunnyvale, CA, USA). Nonlinear regression with 95% confidence intervals (CI 95%) was used to calculate the inhibitory concentration of 50% (IC50) using GraphPad Prism software (Intuitive Software for Science; San Diego, CA, USA).

CT DNA = CT DNA binding by UV–Vis absorption spectroscopy; design: species or system calf; conditions: compound 40 µM, CT DNA 0 to 60 µM, Tris-HCl pH 7.4
Method: Absorption spectroscopy is a convenient and simple method for probing the binding of small molecules to DNA. The interaction of selected acridine–thiosemicarbazone derivatives with CT DNA was studied in the 220–500 nm region. Binding constants (Kb) were calculated from [DNA]/(Ɛa − Ɛf) versus [DNA], in which Kb is given by the ratio of slope to the intercept. […] For this, the regions chosen were the ones with the highest absorption intensity above 300 nm, due to the lower interference in DNA absorption in this region (ESI, Figures S50 and S53).
The concentration of the calf thymus, Type I, fibers (CT DNA), was determined based on the extinction coefficient of the absorbance at 260 nm (6600 L mol^−1 cm^−1). All compounds were dissolved in methanol (HPLC grade) at a concentration of 1 mmol L^−1 (stock solution). Working solutions were prepared by diluting the stock solution using Tris-HCl buffer (pH 7.4), with concentrations of 40 µmol L^−1. Under the optimized concentration, the compounds were titered with increasing concentrations of CT DNA (5 to 60 µmol L^−1). After shaking the system and incubating at room temperature for 10 min, the measurements were recorded using a JASCO J818 spectropolarimeter in the range of 220 to 500 nm at 298 K. The intrinsic bond constant (Kb) was obtained by adjusting the data according to the equation below:[DNA]/(Ɛa − Ɛf) = [DNA]/(Ɛb − Ɛf) + 1/[Kb (Ɛb − Ɛf)] where Ɛa, Ɛb and Ɛf are the apparent extinction coefficient of the compounds, the extinction coefficient of the compounds found in their […] and the extinction coefficient of the compounds when fully DNA-bound, respectively. The graph of [DNA]/(Ɛa − Ɛf) versus [DNA] was used to obtain the Kb from the ratio between the slope and the intercept, as previously described in the literature. Binding data were obtained using SigmaPlot 10.0 software. The study of possible DNA denaturation using methanol–water solutions was evaluated up to the maximum final concentration of methanol in the assays (6%) (ESI, Figures S50 and S53).

In the case of `COc1ccc2nc3cc(Cl)ccc3c(NC(=S)N/N=C/c3cccc(O)c3)c2c1` [DL-08, (E)-N-(6-chloro-2-methoxyacridin-9-yl)-2-(3-hydroxybenzylidene)hydrazine-1-carbothioamide], the “Organ mass Heart (g)” value (Swiss mice) is reported as 0,427±0,035 g, the “Organ mass Kidneys (g)” value (Swiss mice) is reported as 1,355±0,062 g and the “Organ mass Liver (g)” value (Swiss mice) is reported as 5,619±0,259 g. For the same compound, the “Organ mass Lungs (g)” value (Swiss mice) was 0,646±0,032 g, the “Organ mass Speleen (g)” value (Swiss mice) was 0,412±0,033 g and the “Food (g/day)” value (Swiss mice) was 15,21±0,97 g/day. The “Water (mL/day)” value (Swiss mice) was 25,28±0,46 mL/day, the “Weight gain (g)” value (Swiss mice) was 0,76±0,43 g and the “DA/TA (dead animals/total animals)” value (Swiss mice) was 0/3. For the same compound, the “Mortality (%)” value (Swiss mice) was 0%, the “Signs of Toxicity” value (Swiss mice) was “Hepatic steatosis” and the IC50 [1] was 14.8 µM. For the same compound, the “Hypochromic (%)” value (CT DNA) was 14.79%.

For `Oc1ccc(/C=N/NC(=S)Nc2c3ccccc3nc3ccccc23)cc1` [CL-07, (E)-N-(acridin-9-yl)-2-(4-hydroxybenzylidene)hydrazine-1-carbothioamide], the “Organ mass Heart (g)” value (Swiss mice) was 0,417±0,038 g, the “Organ mass Kidneys (g)” value (Swiss mice) was 1,308±0,099 g and the “Organ mass Lungs (g)” value (Swiss mice) was 0,619±0,089 g. For the same compound, the “Organ mass Speleen (g)” value (Swiss mice) was 0,574±0,061 g, the “Food (g/day)” value (Swiss mice) was 14,57±1,78 g/day and the “Water (mL/day)” value (Swiss mice) was 23,57±1,34 mL/day. For the same compound, the “Weight gain (g)” value (Swiss mice) was 1,33±0,27 g, the “DA/TA (dead animals/total animals)” value (Swiss mice) was 0/3 and the “Mortality (%)” value (Swiss mice) was 0%. The “Signs of Toxicity” value (Swiss mice) was “None”, the IC50 [1] was 19.8 µM and the “Hypochromic (%)” value (CT DNA) was 25.52%.

With `COc1ccc2nc3cc(Cl)ccc3c(NC(=S)N/N=C/c3ccccc3)c2c1` [DL-01, (E)-2-benzylidene-N-(6-chloro-2-methoxyacridin-9-yl)hydrazine-1-carbothioamide] the “Organ mass Heart (g)” value (Swiss mice) was 0,410±0,039 g, the “Organ mass Kidneys (g)” value (Swiss mice) was 1,338±0,091 g and the “Organ mass Liver (g)” value (Swiss mice) was 5,257±0,610 g. For the same compound, the “Organ mass Lungs (g)” value (Swiss mice) was 0,640±0,057 g, the “Organ mass Speleen (g)” value (Swiss mice) was 0,551±0,037 g and the “Food (g/day)” value (Swiss mice) was 12,35±1,39 g/day. The “Water (mL/day)” value (Swiss mice) was 23,71±1,26 mL/day, the “Weight gain (g)” value (Swiss mice) was 0,69±0,58 g and the “DA/TA (dead animals/total animals)” value (Swiss mice) was 0/3. The “Mortality (%)” value (Swiss mice) was 0%, the “Signs of Toxicity” value (Swiss mice) was “Reduced feed consumption” and the IC50 [1] was 39.6 µM. For the same compound, the “Hypochromic (%)” value (CT DNA) was 12.89%.
